# Reference: patent US20140377289A1, “Metallodrugs Having Improved Pharmacological Properties, and Methods of Manufacture and Use Thereof” (MetalloPharm, LLC, priority 2011, published 2014)
# Like-named read-outs stand apart in the source and are kept apart here. Where a SMILES comes first, the peptide text is derived from it. [ ]: non-standard residue; d: D form. Cha = N[C@@H](CC1CCCCC1)C(=O)O
# How the values were obtained:
# [1] = biological target: HCV protease (Hepatitis C virus genotype 1a, UniProt P27958); assay: biochemical; type: binding
# HCV protease, sequence (P27958 1027-1208, other chains not shown): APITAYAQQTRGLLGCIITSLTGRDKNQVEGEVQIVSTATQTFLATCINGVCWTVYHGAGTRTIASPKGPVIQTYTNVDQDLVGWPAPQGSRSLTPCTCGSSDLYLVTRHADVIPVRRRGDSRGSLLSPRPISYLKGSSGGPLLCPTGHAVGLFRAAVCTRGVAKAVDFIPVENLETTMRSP
# Source text: This stems from the relationship between affinity and the on/off rate constants for binding (KA=kon/koff), where higher affinity binding is promoted by larger kon and/or smaller koff values. By contrast, efficient catalytic turnover requires koff values that are preferably no smaller than the rate constant for the inactivation chemistry (kcat), to ensure the availability of metallodrug catalyst for new target molecules, and will be best promoted by relatively high values for both kon and koff, which will result in weaker KA values.
# Apparent binding affinities and rates of inactivation for HCV protease by several metallopeptide derivatives incorporating a Cu-GGH metal binding domain and C-terminal HCV protease targeting peptides were prepared and their affinity and reactivity were evaluated under in the presence of various redox reagents. Affinities lay within the range of 10^4M^−1 and 5×10^8 M^−1.
# [2] = test system: pUC19 plasmid DNA; assay: DNA nicking and linearization nuclease assay; type: biochemical; settings: 10 μM base pairs pUC19, ascorbate/peroxide; for klin for DNA linearization, without attached Rev (M-chelate) / knick for DNA nicking, without attached Rev (M-chelate): — = Below detection limit; for klin for DNA linearization, with attached Rev (M-chelate-REV) / knick for DNA nicking, with attached Rev (M-chelate-REV): 100 nM M-chelate-Rev
# [3] = test system: HCV RNA replicon in ET (luc-ubi-neo/ET) Huh7 cells; settings: read-out: antiviral IC50; 72 h, replicon-derived Luc activity
# [4] = in vitro; settings: human
# [5] = biological target: stem-loop IIb of HCV IRES RNA; type: binding, hepatitis C virus (HCV)
# Protocol: RNA was purchased from Dharmacon, part of Thermo Fisher Scientific (Lafayette, Colo.). Peptides were purchased from Genemed Synthesis Inc (South San Francisco, Calif.) with C-terminal amidation. The stem-loop (SL) structure (from Lytle et al., RNA 13: 539-48, 2002) is depicted in FIG. 6. The sequence for the IRES SL IIb RNA used was 5′-Fluorescein-[…]-3′, and for the IRES SL IV RNA was 5′-Fluorescein-[…]-3′. All RNA was annealed by heating to 95° C. and then cooled slowly to room temperature before use.
# RNA binding experiments were performed in the presence of 84 nM GGHYrFK-amide in 20 mM HEPES (pH 7.4), 100 mM NaCl. For GGHYrFK-amide, serial additions of unlabeled IRES RNA were added and tyrosine emission was monitored (λex=280 nm, λem=313 nm). Binding data for GGHYr[…]-amide and GGHYr[…]-amide were obtained by adding serial additions of peptide to 5′-fluorescein labeled IRES SLIIb and monitoring at 518 nm (Ex=485 nm). Data was then fit to a one-site binding model.
# [6] = test system: stem loop IIb HCV IRES RNA; type: biochemical, hepatitis C virus (HCV)
# Protocol: HCV IRES RNA cleavage was monitored in vitro by fluorescence using 5′ fluorescein end-labeled RNA with excitation and emission wavelengths of 485 nm and 518 nm, respectively. Reactions were carried out in reaction volumes of 100 μl in the presence of 1 mM ascorbate and 1 mM H2O2 in 20 mM HEPES buffer (pH=7.4), 100 mM NaCl with 100 nM of the catalyst and analyzed according to the change in fluorescence observed as the reaction occurred. Both a time-dependence and a concentration-dependence of RNA substrate were observed. The initial velocities were fit to a line using Origin 7.0 software and kobs obtained. These values were then used to obtain the Michaelis-Menten parameters.
# The reactivity of select catalytic metallodrugs was investigated by Michaelis-Menten profiles. Reaction chemistry was followed by monitoring the fluorescence change of 5′-fluorescein-labeled RNA as a function of time. Initial velocities were measured as a function of substrate (RNA) concentration to generate a standard Michaelis-Menten plot (FIG. 2).
# [7] = test system: ET (luc-ubi-neo/ET) Huh7 human hepatoma cell line; settings: read-out: cytotoxicity TC50; 72 h, CytoTox-1 colorimetric assay
# [8] = test system: HIV RRE RNA (AP-RRE RNA); type: binding; settings: for Kd: 37° C., pH 7.4
# Protocol: Determination of Dissociation Constants. […] A 660 μL volume of 100 nM AP-RRE RNA was first heated to 90° C. for 5 min and then allowed to cool to, but not below, the titration temperature (37° C.). A 650 μL volume of this sample was added to the pre-thermostatted cuvette. After 10 min of temperature equilibration a solution of 5 μM M-chelate-Rev complex was titrated into the solution. After each addition, 100 μL of the solution was mixed by gentle pipeting to ensure complete mixing. The fluorescence change associated with the change of environment of the aminopurine label was monitored following peptide binding. Titration response curves were dilution and background corrected and normalized to initial intensity values. Curves were fit to a biphasic equation (4) for two independent binding sites where Fobs is the total observed fluorescence intensity, P0 is the total concentration of added M-chelate-Rev, F0, F1, and F2 are fitting parameters corresponding to the intensities of the unbound, singly-bound, and doubly-bound AP-RNA, respectively, R0 is the initial concentration of AP-RNA, and KD1 and KD2 are dissociation constants for binding at the high- and low-affinity sites, respectively. All binding experiments were performed in a binding buffer composed of 20 mM HEPES, 100 mM NaCl, pH 7.4.
# [9] = test system: 5′ fluorescein end-labeled RRE stem IIB RNA (Fl-RNA); assay: PAGE analysis of RRE RNA cleavage kinetics; type: biochemical, HIV; settings: 100 nM complex, 100 nM Fl-RNA, 1 mM H2O2, 1 mM ascorbate, 37° C.; initial rate
# Protocol: PAGE Analysis of RRE RNA Cleavage Kinetics. Reactions of 100 nM metal-chelate-Rev (1:1.2 M:chelate ratio), 1 mM H2O2, 1 mM ascorbate, and 100 nM 5′ fluorescein end-labeled RRE stem IIB RNA (Fl-RNA) were conducted at 37° C. in separate tubes, each containing 20 μL total reaction volume—one tube corresponding to one gel lane. A buffer consisting of 20 mM HEPES, 100 mM NaCl, pH 7.4 was used in all experiments. Fl-RNA was heated to 90° C. and allowed to cool to, but not below 37° C. prior to reaction, and the Fl-RNA was immediately added to each pre-incubated tube. Reactants were added to pre-incubated tubes at time-points corresponding to the beginning of each reaction, which were performed in a dark incubator. Reaction start times were staggered and all reactions were quenched at the same time by addition of a quenching/gel-loading buffer solution (80 μL/tube) consisting of standard 1× tris-EDTA-acetic acid buffer, 8M urea, 20 mM HEPES, 100 mM NaCl. The tubes were then heated to 90° C. for 5 min and a 5 μL aliquot from each tube was then loaded into its corresponding lane of a 10% polyacrylamide 8 M urea gel, resulting in […] Fl-RNA per lane. Gel electrophoresis was performed at 250 V for 1.5 h. Gels were analyzed on a GE Typhoon variable mode imager using 488 nm excitation and a 526 nm single pass emission filter. Bands were quantified with the program ImageQuant. Loss of initial Fl-RNA reactant bands were fit to a first-order reaction equation using the software Origin, and observed rate constants and initial rates were determined. Control reactions with respective metal-chelates lacking the Rev domain were conducted in the same manner.
# [10] = test system: AP-RNA (aminopurine-labeled RRE RNA); assay: Reaction kinetics monitored by real-time fluorimetry, AP-RNA; type: biochemical, HIV; settings: 100 nM complex, 100 nM AP-RNA, 1 mM H2O2, 1 mM ascorbate, 37° C.; initial rate
# Protocol: Reaction Kinetics Monitored by Real-Time Fluorimetry. Reactions of 100 nM metal-chelate-Rev (1:1.2 M:chelate ratio), 1 mM H2O2, 1 mM ascorbate, and 100 nM AP-RNA were conducted at 37° C. in a fluorescence cuvette in a Varian Cary Eclipse fluorescence spectrophotometer. Reactions were monitored using excitation at 310 nm (SW=10 nm) and emission at 371 nm (SW=10 nm). Prior to reaction the AP-RNA was pre-heated to 90° C. for 5 min and then added to the pre-warmed 37° C. cuvette. The metal-chelate-Rev complexes were added after 5 min, and reactions were initiated by the addition of H2O2 and ascorbate after an additional 10 min. Each resulting fluorescence trace was fit to a first-order reaction equation using the software Origin, and observed rate constants and initial rates were determined; the magnitude of fluorescence change that corresponded to complete reaction was established by averaging the magnitudes of fluorescence change from many trials known to react to completion. All concentrations and buffer were identical to those used in the PAGE analysis assay with Fl-RNA. Control reactions with respective metal-chelates lacking the Rev domain were conducted in the same manner.
# [11] = biological target: S. aureus sortase A (Staphylococcus aureus, UniProt Q2FV99); type: biochemical; settings: for activity for catalyst concentration of 1 μM: catalyst concentration 1 μM
# S. aureus sortase A, sequence (Q2FV99 whole entry): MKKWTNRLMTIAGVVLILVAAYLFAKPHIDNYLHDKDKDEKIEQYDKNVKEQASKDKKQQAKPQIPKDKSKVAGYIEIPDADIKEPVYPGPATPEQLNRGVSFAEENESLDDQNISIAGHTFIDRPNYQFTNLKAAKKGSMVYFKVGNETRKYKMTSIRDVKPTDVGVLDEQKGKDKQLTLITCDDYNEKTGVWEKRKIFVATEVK
# Protocol: Apparent binding affinities and rates of inactivation for S. aureus sortase A by several metallopeptide derivatives were evaluated. […]
# [12] = Michaelis-Menten, stem-loop IIb RNA as substrate
# [13] = high-affinity RRE RNA site, read-out: KD1
# [14] = low-affinity RRE RNA site, read-out: KD2
molecule,measurement,setting,value
CC[C@H](C)[C@H](NC(=O)[C@H](CC(C)C)NC(=O)[C@@H](CCC(=O)O)NC(=O)[C@H](CC(=O)O)NC(=O)CNC(=O)[C@H](Cc1c[nH]cn1)NC(=O)CNC(=O)CN)C(=O)N[C@@H](CC1CCCCC1)C(=O)N[C@@H](CS)C(=O)O [Cu-GGHGDeLI(Cha)C—CO2^−] (H-GGHGD[dE]LI[Cha]C-OH),Kd,[1],500 nM
same,Ki,[1],~500 nM
same,KA,[1]; apparent binding affinity,~2e+06 M⁻¹
O=C([O-])CN(CC(=O)[O-])CC(=O)[O-].[Fe+3] [Fe-NTA],"klin for DNA linearization, without attached Rev (M-chelate)",[2],0.0008 ± 0.0002 min⁻¹
same,"knick for DNA nicking, without attached Rev (M-chelate)",[2],0.05 ± 0.01 min⁻¹
O=C(O)CN(CCN(CC(=O)O)CC(=O)O)CC(=O)O.[Ni] [Ni-EDTA],"klin for DNA linearization, without attached Rev (M-chelate)",[2],0.00019 ± 0.00002 min⁻¹
same,"knick for DNA nicking, without attached Rev (M-chelate)",[2],0.037 ± 0.002 min⁻¹
"N=C(N)NCCC[C@@H](NC(=O)[C@@H](N)Cc1ccc(O)cc1)C(=O)N[C@@H](Cc1ccccc1)C(=O)N[C@@H](CCCCN)C(N)=O [YrFK, reference compound]",IC50,[3],> 100000 nM
same,CC50 at 72 h,[4],> 100000 nM
"Cu complex of ATCUN peptide GGHYrFK, C-terminal amidated; targets stem-loop IIb of HCV IRES RNA [Cu-GGHYrFK-amide]",Kd,[5]; change in tyrosine emission at 313 nm,44 ± 2 nM
same,KA,[5]; stem-loop IIb,2.27e+07 M⁻¹
same,Km,[6]; [12],0.85 µM
same,kcat,[6]; [12],0.00883 s⁻¹
same,Vmax,"[6]; cleavage of stem-loop IIb, 100 nM catalyst, 1 mM ascorbate, 1 mM H2O2",1.71 RFU/min
same,turnover number,[6]; stem-loop IIb RNA as substrate,32
same,IC50,[3],580 nM
same,CC50,[7],> 100000 nM
"Cu complex of DOTA coupled to K-Rev, Ac-KTRQARRNRRRRWRERQR-NH2 [Cu-DOTA-Rev]",KA1,[8]; high-affinity RRE RNA site,25 10^8 M^−1
same,Kd,[8]; [13],0.4 ± 0.1 nM
same,KA2,[8]; low-affinity RRE RNA site,0.02 10^8 M^−1
same,Kd,[8]; [14],488 ± 9 nM
same,Fl-RNA Cleavage Rate,[9],0.8 ± 0.1 nM/min
same,AP-RNA Modification Rate,[10],2.8 ± 0.1 nM/min
same,"klin for DNA linearization, with attached Rev (M-chelate-REV)",[2],0.0025 ± 0.0008 min⁻¹
same,"knick for DNA nicking, with attached Rev (M-chelate-REV)",[2],0.043 ± 0.007 min⁻¹
"Cu complex of GGH-Rev, GGHTRQARRNRRRRWRERQR-NH2 [Cu-GGH-Rev]",KA1,[8]; high-affinity RRE RNA site,25 10^8 M^−1
same,Kd,[8]; [13],4.6 ± 0.5 nM
same,KA2,[8]; low-affinity RRE RNA site,0.028 10^8 M^−1
same,Kd,[8]; [14],363 ± 9 nM
same,Fl-RNA Cleavage Rate,[9],0.045 ± 0.005 nM/min
same,AP-RNA Modification Rate,[10],0.4 ± 0.3 nM/min
same,"klin for DNA linearization, with attached Rev (M-chelate-REV)",[2],0.0013 ± 0.0001 min⁻¹
same,"knick for DNA nicking, with attached Rev (M-chelate-REV)",[2],0.069 ± 0.006 min⁻¹
"Cu complex of KGHK-Rev, KGHKTRQARRNRRRRWRERQR-NH2 [Cu-KGHK-Rev]",KA1,[8]; high-affinity RRE RNA site,7.7 10^8 M^−1
same,Kd,[8]; [13],1.3 ± 0.5 nM
same,KA2,[8]; low-affinity RRE RNA site,0.066 10^8 M^−1
same,Kd,[8]; [14],148 ± 5 nM
same,Fl-RNA Cleavage Rate,[9],0.060 ± 0.005 nM/min
same,AP-RNA Modification Rate,[10],0.511 ± 0.003 nM/min
same,"klin for DNA linearization, with attached Rev (M-chelate-REV)",[2],0.0062 ± 0.0006 min⁻¹
same,"knick for DNA nicking, with attached Rev (M-chelate-REV)",[2],0.17 ± 0.04 min⁻¹
Cu-GGHAALEAKICHQIEYYFGDF,IC50,[3],3460 nM
same,CC50,[7],41100 nM
Cu-GGHGAALEAKICHQIEYYFGDF,IC50,[3],6250 nM
same,CC50,[7],52000 nM
Cu-GGHGKYKETDLLILFKDDYFAKKNEERK,IC50,[3],550 nM
same,CC50,[7],> 100000 nM
Cu-GGHGKYKETDLLILFKDDYFAKKNEERKKDEL,IC50,[3],750 nM
same,CC50,[7],> 50000 nM
Cu-GGHGLPET,IC50,[11],> 100000 nM
same,activity for catalyst concentration of 1 μM,[11],0.027
Cu-GGHGLPETG,IC50,[11],> 100000 nM
same,activity for catalyst concentration of 1 μM,[11],0.012
Cu-GGHGYrFK,IC50,[3],1380 nM
same,CC50,[7],> 100000 nM
Cu-GGHGYrFKGGGKDEL,IC50,[3],910 nM
same,CC50,[7],> 100000 nM
Cu-GGHGYrFKGGGYGRKKRRQRRR,IC50,[3],950 nM
same,CC50,[7],96000 nM
Cu-GGHKYKETDLLILFKDDYFAKKNEERKYGRKKRRQRRR,IC50,[3],830 nM
same,CC50,[7],> 50000 nM
Cu-GGHLPETG,IC50,[11],> 100000 nM
same,activity for catalyst concentration of 1 μM,[11],0.017
Cu-GGHYrFKGGGYGRKKRRQRRR,IC50,[3],1850 nM
same,CC50,[7],84000 nM
